Laboratory results reported in the supplement of paper PMC10307832.

Tests used:
Assay in all cases: relative viability (nuclei count vs DMSO), 5 days (fraction); higher = more cells survive
Obatoclax + Linsitinib = compound: COC1=CC(c2cc3ccccc3[nH]2)=N/C1=C\c1[nH]c(C)cc1C [Obatoclax] + C[C@]1(O)C[C@@H](c2nc(-c3ccc4ccc(-c5ccccc5)nc4c3)c3c(N)nccn32)C1 [Linsitinib] (partner 1 µM)
How it was run: (§1)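 Each reported value is a median over duplicate plates. It expresses relative viability: treated-well nuclei count divided by vehicle-well nuclei count. Lung cancer cell lines in 1536-well plates were dosed by pin tool a day after seeding, alone with one drug or with a fixed anchor-drug dose plus five library-drug doses (not always all listed) in √10 steps, and nuclei were counted after 5 days.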

Bortezomib + Decitabine = compound: CC(C)C[C@H](NC(=O)[C@H](Cc1ccccc1)NC(=O)c1cnccn1)B(O)O [Bortezomib] + Nc1ncn([C@H]2C[C@H](O)[C@@H](CO)O2)c(=O)n1 [Decitabine] (partner 2 µM)
How it was run: as §1

Bortezomib + Crizotinib = compound: CC(C)C[C@H](NC(=O)[C@H](Cc1ccccc1)NC(=O)c1cnccn1)B(O)O [Bortezomib] + C[C@@H](Oc1cc(-c2cnn(C3CCNCC3)c2)cnc1N)c1c(Cl)ccc(F)c1Cl [Crizotinib] (partner 1 µM)
How it was run: as §1

Obatoclax + OSI-027 = compound: COC1=CC(c2cc3ccccc3[nH]2)=N/C1=C\c1[nH]c(C)cc1C [Obatoclax] + COc1cccc2cc(-c3nc([C@H]4CC[C@H](C(=O)O)CC4)n4ncnc(N)c34)[nH]c12 [OSI-027] (partner 0.5 µM)
How it was run: as §1

| Cell Line | relative viability (Obatoclax + Linsitinib; first compound 0.01 µM) | relative viability (Obatoclax + Linsitinib; first compound 0.03162 µM) | relative viability (Obatoclax + Linsitinib; first compound 0.1 µM) | relative viability (Obatoclax + Linsitinib; first compound 0.3162 µM) | relative viability (Obatoclax + Linsitinib; first compound 1 µM) | relative viability (Bortezomib + Decitabine; first compound 0.0002 µM) | relative viability (Bortezomib + Decitabine; first compound 0.000632 µM) | relative viability (Bortezomib + Decitabine; first compound 0.002 µM) | relative viability (Bortezomib + Decitabine; first compound 0.006325 µM) | relative viability (Bortezomib + Decitabine; first compound 0.02 µM) | relative viability (Bortezomib + Crizotinib; first compound 0.0002 µM) | relative viability (Bortezomib + Crizotinib; first compound 0.000632 µM) | relative viability (Bortezomib + Crizotinib; first compound 0.002 µM) | relative viability (Bortezomib + Crizotinib; first compound 0.006325 µM) | relative viability (Bortezomib + Crizotinib; first compound 0.02 µM) | relative viability (Obatoclax + OSI-027; first compound 0.01 µM) | relative viability (Obatoclax + OSI-027; first compound 0.03162 µM) | relative viability (Obatoclax + OSI-027; first compound 0.1 µM) | relative viability (Obatoclax + OSI-027; first compound 0.3162 µM) | relative viability (Obatoclax + OSI-027; first compound 1 µM) |
| --- | --- | --- | --- | --- | --- | --- | --- | --- | --- | --- | --- | --- | --- | --- | --- | --- | --- | --- | --- | --- |
| LOU-NH91 | 0.949 | 0.865 | 0.792 | 0.833 | 0.761 | 0.805 | 0.82 | 0.41 | 0.373 | 0.322 | 0.749 | 0.708 | 0.342 | 0.314 | 0.319 | 0.727 | 0.719 | 0.566 | 0.714 | 0.683 |
| LU99A | 0.486 | 0.437 | 0.498 | 0.307 | 0.475 | 0.841 | 0.88 | 0.885 | 0.825 | 0.202 | 0.592 |  | 0.561 | 0.274 | 0.153 | 0.291 | 0.282 | 0.267 | 0.312 | 0.298 |
| LXF-289 | 0.903 | 0.969 | 0.961 | 0.93 | 0.994 | 0.364 | 0.384 | 0.394 | 0.196 | 0.112 | 0.809 | 0.795 | 0.896 | 0.0729 | 0.0698 | 0.78 | 0.77 | 0.68 | 0.765 | 0.691 |
| NCI-H23 | 0.588 | 0.598 | 0.647 | 0.606 | 0.598 | 0.288 |  | 0.312 | 0.162 | 0.163 |  | 0.491 | 0.417 | 0.128 | 0.0919 | 0.632 | 0.62 | 0.626 | 0.503 | 0.243 |
| NCI-H322M | 0.943 | 0.958 | 0.941 | 0.893 | 0.89 | 0.783 | 0.671 | 0.705 | 0.6 | 0.45 | 0.977 |  | 0.99 | 0.985 | 0.36 | 0.531 | 0.338 |  | 0.462 | 0.386 |
| NCI-H358 | 0.735 | 0.504 | 0.394 | 0.344 | 0.278 | 0.204 | 0.207 | 0.191 | 0.0949 | 0.0871 | 0.63 | 0.56 | 0.503 | 0.126 | 0.113 | 0.736 | 0.871 | 0.903 | 0.379 | 0.199 |
| NCI-H441 | 0.683 | 0.551 | 0.394 | 0.52 | 0.435 | 0.235 | 0.274 | 0.207 | 0.119 | 0.109 | 0.584 | 0.716 | 0.29 | 0.135 | 0.129 | 0.772 | 0.502 | 0.704 | 0.354 | 0.271 |
| NCI-H460 | 0.719 | 0.864 | 0.582 | 0.0258 | 0.0195 | 0.479 | 0.471 | 0.56 | 0.296 | 0.0215 | 0.979 | 0.832 | 0.927 | 0.0481 | 0.0102 | 0.697 | 0.703 | 0.635 | 0.0709 | 0.0443 |
| NCI-H520 | 0.925 | 0.891 | 1.12 | 0.583 | 0.262 | 0.43 | 0.549 | 0.424 | 0.174 | 0.155 | 0.913 | 0.759 | 0.894 | 0.102 | 0.102 | 0.256 | 0.284 | 0.406 | 0.251 | 0.243 |
| NCI-H596 | 1.07 | 0.945 | 0.809 | 0.66 | 0.731 | 1.01 | 0.999 | 0.95 | 0.251 | 0.208 | 0.98 | 0.957 | 1.02 | 0.224 | 0.182 | 0.837 | 0.602 | 0.65 | 0.504 | 0.425 |
| NCI-H647 | 1.14 | 1.13 | 1.11 | 0.317 | 0.254 | 0.483 | 0.404 | 0.38 | 0.0562 | 0.0417 | 0.993 | 0.954 | 0.627 | 0.0302 | 0.0195 | 0.606 | 0.692 | 0.585 | 0.346 | 0.184 |
| NCI-H661 | 0.598 | 0.564 | 0.66 | 0.529 | 0.735 | 0.553 | 0.553 | 0.529 | 0.395 | 0.204 | 1.1 | 1.03 | 1.16 | 0.82 | 0.269 | 0.689 | 0.704 | 0.709 | 0.649 | 0.407 |
| NCI-H727 | 0.372 | 0.28 | 0.343 | 0.267 | 0.231 | 0.993 | 1.09 | 0.875 | 0.95 | 0.834 | 0.774 | 0.864 | 0.91 | 0.155 | 0.0951 | 0.776 | 0.554 | 0.857 | 0.61 | 0.453 |
| NCI-H838 | 0.984 | 1.06 | 0.862 | 0.717 | 0.935 | 0.473 | 0.467 | 0.459 | 0.184 | 0.138 | 0.822 | 0.811 | 0.916 | 0.348 | 0.123 | 0.498 | 0.367 | 0.46 | 0.385 | 0.284 |
| NCI-H1355 | 0.867 | 0.87 | 0.802 | 0.739 | 0.75 | 0.343 | 0.362 | 0.367 | 0.177 | 0.139 | 1.02 | 1.06 | 0.788 | 0.275 | 0.139 | 0.391 | 0.386 | 0.462 | 0.422 | 0.399 |
| NCI-H1437 | 1.01 | 0.988 | 0.979 | 0.912 | 0.705 | 0.585 | 0.585 | 0.595 | 0.214 | 0.223 | 0.966 | 0.894 | 0.92 | 0.0811 | 0.0914 | 0.868 | 0.889 | 0.835 | 0.859 | 0.752 |
